Data reported in US11684067B2, “Generation of peroxyformic acid through polyhydric alcohol formate” (priority 2014, dated 2023).
Where a name gives a salt, the structure may show the parent alone.

Legend:
pseudomonas = test: Suspension test in cooling tower water samples; type: cell-based; settings: 5 ppm Ester PFA / 6.13 ppm POAA, 10 minutes
Procedure: The antimicrobial efficacy of peroxyformic acid generated through the perhydrolysis of glycerol formatted were tested against pseudomonas in cooling tower samples at both 25° C. and 37° C., along with the peroxyacetic acid (POAA) controls, and the results are summarized in Table 6 and 7 below.

[1] = system: Aspergillus brasiliensis ATCC 16403; test: Anti-fungal suspension test of Ester PFA, dirty conditions; type: cell-based
From the text: Aspergillus brasilensis ATCC 16403 was used to evaluate the efficacy in treatment with performic acid compositions according to the conditions shown in Table 18.

[2] = system: Nalidixic acid resistant E. coli O157:H7; test: Reduction of E. coli on raw beef brisket, dip treatment; type: cell-based; settings: 10 minutes dip, ambient, 220 ppm POAA / 180 ppm PFA / 50 ppm LAS per formula (Table 15)
Procedure: Nalidixic acid resistant E. coli O157:H7 was used to evaluate the efficacy in treatment with performic acid composition on raw beef brisket according to the conditions shown in Table 14.
The generation of PFA from the perhydrolysis of glycerol formates, PFA formulations, POAA formations and controls were evaluated as shown in Table 15.

[3] = system: Aspergillus brasiliensis ATCC 16404; test: Fungicidal activity of ester PFA, dirty conditions (Example 20); type: cell-based; settings: 35°C, 5 minutes
From the text: Various Bacillus and Aspergillus pathogens were used to evaluate the micro efficacy of ester PFA generated according to methods of the present invention.

[4] = Perhydrolysis of esters in H2O2 solution, peracid by iodometric titration; type: physicochemical; settings: 50 ppm ester; for peracid generation under the tested conditions: 150 ppm H2O2, pH 8.5; for Peracid: 150 ppm H2O2, pH 8.5, ambient
Procedure: (§1) [drawing 8] were added to 150 ppm H2O2 solution of pH 8.5 (DI water adjusted by adding 3.0 g of NaHCO3 per liter of water and then adjusted pH with Na2CO3) respectively under ambient conditions. The concentration of peroxycarboxylic acids were measured by an iodometric titration method.
as §1, with “Fifty (50) ppm various formic acid esters” for “[drawing 8]”, “method. […]” for “method.”

[5] = Peninsula Cooling Water pH 8.81, 25°C
[6] = Peninsula Cooling Water pH 8.81, 37°C

O=COO [Ester PFA, peroxyformic acid]
Avg. Log10 Growth (pseudomonas; BP Cooling Water pH 8.74, 25°C): 2.74 Log10 | Log10 Reduction (pseudomonas; BP Cooling Water pH 8.74, 25°C): 2.93 Log10 | Avg. Log10 Growth (pseudomonas; BP Cooling Water pH 8.74, 37°C): 2.68 Log10 | Log10 Reduction (pseudomonas; BP Cooling Water pH 8.74, 37°C): 2.42 Log10 | Avg. Log10 Growth (pseudomonas; [5]): 2.76 Log10 | Log10 Reduction (pseudomonas; [5]): 2.42 Log10 | Avg. Log10 Growth (pseudomonas; [6]): 2.70 Log10 | Log10 Reduction (pseudomonas; [6]): 2.40 Log10 | Log10 Growth ([1]; 320 ppm PFA, 20°C, 5 minutes): 3.27 Log10 | Log10 Reduction ([1]; 320 ppm PFA, 20°C, 5 minutes): 2.57 Log10 | Log10 Growth ([1]; 320 ppm PFA, 20°C, 10 minutes): 2.22 Log10 | Log10 Reduction ([1]; 320 ppm PFA, 20°C, 10 minutes): 3.61 Log10 | Log10 Growth ([1]; 320 ppm PFA, 30 C., 5 minutes): 2.19 Log10 | Log10 Reduction ([1]; 320 ppm PFA, 30 C., 5 minutes): 3.64 Log10 | Log10 Growth ([1]; 320 ppm PFA, 30 C., 10 minutes): <2.15 Log10 | Log10 Reduction ([1]; 320 ppm PFA, 30 C., 10 minutes): >3.68 Log10 | Log10 Growth ([1]; 400 ppm PFA, 20°C, 5 minutes): <2.15 Log10 | Log10 Reduction ([1]; 400 ppm PFA, 20°C, 5 minutes): >3.68 Log10 | Log10 Growth ([1]; 400 ppm PFA, 20°C, 10 minutes): <2.15 Log10 | Log10 Reduction ([1]; 400 ppm PFA, 20°C, 10 minutes): >3.68 Log10 | Log10 Growth ([1]; 400 ppm PFA, 30 C., 5 minutes): 1.48 Log10 | Log10 Reduction ([1]; 400 ppm PFA, 30 C., 5 minutes): 4.36 Log10 | Log10 Growth ([1]; 400 ppm PFA, 30 C., 10 minutes): <2.15 Log10 | Log10 Reduction ([1]; 400 ppm PFA, 30 C., 10 minutes): >3.68 Log10 | Average Log CFU/cm2 [2]: 2.74 Log CFU/cm2 | Log reduction [2]: 1.30 Log | Log10 Growth ([3]; Table 23: 300 ppm PFA): 3.87 Log10 | Log10 Reduction ([3]; Table 23: 300 ppm PFA): 2.26 Log10 | Log10 Growth ([3]; Table 23: 350 ppm PFA): 2.23 Log10 | Log10 Reduction ([3]; Table 23: 350 ppm PFA): 3.91 Log10

CCOC=O [Ethyl formate]
peracid generation under the tested conditions [4]: no detectable peracid | Peracid ([4]; 1 min): 0.00 ppm | Peracid ([4]; 5 min): 0.00 ppm | Peracid ([4]; 10 min): 0.00 ppm | Peracid ([4]; 15 min): 0.00 ppm | Peracid ([4]; 25 min): 0.00 ppm | Peracid ([4]; 35 min): 0.00 ppm

CC(=O)OCC(COC(C)=O)OC(C)=O [Triacetin]
peracid generation under the tested conditions [4]: no detectable peracid | Peracid ([4]; 1 min): 0.00 ppm | Peracid ([4]; 5 min): 0.00 ppm | Peracid ([4]; 10 min): 0.00 ppm | Peracid ([4]; 15 min): 0.00 ppm | Peracid ([4]; 25 min): 0.00 ppm | Peracid ([4]; 35 min): 0.00 ppm
